Experimental findings from patent publication US11001563B2, “SSAO inhibitor” (SHANDONG DANHONG PHARMACEUTICAL CO., LTD., priority 2017, dated 2021) are described below.

Data set [1] in a line: Distribution of compounds in liver and blood of CD-1 mice. In kind it is in vivo. The following applies: single oral dose. As for the experimental part: Experimental purpose: distribution of compounds in liver and blood of CD-1 mice was tested;
CD-1 Mice (male, 25-35 g, 6-9 weeks old, Shanghai Slack);
Experimental procedure: after oral administration, the drug was distributed in the liver and blood of rodents, candidate compounds in the experiment were formulated into a clear solution to be administered to mice in a single oral dose. The oral solvent was a certain proportion of an aqueous solution of hydroxypropyl P-cyclodextrin or a physiological saline solution. The concentration of the drug in the liver and blood was measured at 1 hour and 4 hours after administration.

The target in another data set is CYP2C9 (Homo sapiens (Human), UniProt P11712). Put plainly: Human liver microsomal CYP inhibition assay. In kind it is in vitro ADME. The following applies: human liver microsomes, 5-in-1 probe substrate. The protocol: (§1) The purpose of the study was to evaluate the inhibition of the test sample on human liver microsomal cytochrome P450 isozymes (CYP1A2, CYP2C9, CYP2C19, CYP2D6, and CYP3A4) by using the CYP isozyme 5-in-1 probe substrate.
Sequence of CYP2C9 (P11712 whole entry): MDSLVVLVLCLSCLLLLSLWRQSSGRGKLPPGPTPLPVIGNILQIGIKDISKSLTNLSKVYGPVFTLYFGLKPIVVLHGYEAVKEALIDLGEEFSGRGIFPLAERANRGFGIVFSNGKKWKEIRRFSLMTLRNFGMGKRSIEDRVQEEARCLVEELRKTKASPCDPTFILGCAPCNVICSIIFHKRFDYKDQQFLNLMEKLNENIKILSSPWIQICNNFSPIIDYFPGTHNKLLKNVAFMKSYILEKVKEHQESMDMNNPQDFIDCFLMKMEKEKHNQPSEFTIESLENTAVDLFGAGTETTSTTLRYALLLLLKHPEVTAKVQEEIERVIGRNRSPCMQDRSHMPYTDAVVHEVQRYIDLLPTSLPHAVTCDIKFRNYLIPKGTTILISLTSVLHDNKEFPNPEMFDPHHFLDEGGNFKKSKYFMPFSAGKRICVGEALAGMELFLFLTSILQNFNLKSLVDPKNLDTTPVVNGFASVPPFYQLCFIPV
(§2) Mixed human liver microsomes (HLM) were purchased from Corning Inc. (Steuben, N.Y., USA) or XenoTech, LLC. (Lenexa, Kans., USA) or other suppliers, and stored at the temperature below −70° C. prior to use.
(§3) A series of diluted test sample working solution were added to an incubation system containing cofactors of human liver microsomes, a probe substrate and a circulation system, and the control without a test substance but containing a solvent was used as enzyme activity control (100%). The concentration of the metabolite produced by the probe sample in the sample was determined by liquid chromatography-tandem mass spectrometry (LC-MS/MS). Non-linear regression analysis was performed on the concentration of the average percent activity of the test sample by using SigmaPlot (V.11). The IC50 value was calculated by a three-parameter or four-parameter recursive logarithmic equation.
On the technique in general: Microsomes from liver hold many membrane-bound enzymes, among them those of drug oxidation.

The target of a further data set is CYP2D6 (Homo sapiens (Human), UniProt P10635). Kind of data set: Human liver microsomal CYP inhibition assay. The following applies: human liver microsomes, 5-in-1 probe substrate. It counts as in vitro ADME. The protocol:
as §1, §2, §3

Another data set concerns the target CYP1A2 (Homo sapiens (Human), UniProt P05177). Kind of data set: Human liver microsomal CYP inhibition assay. It counts as in vitro ADME. The following applies: human liver microsomes, 5-in-1 probe substrate. The protocol: as §1, §2, §3
The next data set deals with CYP2C19 (Homo sapiens (Human), UniProt P33261). Kind of data set: Human liver microsomal CYP inhibition assay. The following applies: human liver microsomes, 5-in-1 probe substrate. In kind it is in vitro ADME. As for the experimental part: as §1, §2, §3
Sequence of CYP2C19 (P33261 whole entry): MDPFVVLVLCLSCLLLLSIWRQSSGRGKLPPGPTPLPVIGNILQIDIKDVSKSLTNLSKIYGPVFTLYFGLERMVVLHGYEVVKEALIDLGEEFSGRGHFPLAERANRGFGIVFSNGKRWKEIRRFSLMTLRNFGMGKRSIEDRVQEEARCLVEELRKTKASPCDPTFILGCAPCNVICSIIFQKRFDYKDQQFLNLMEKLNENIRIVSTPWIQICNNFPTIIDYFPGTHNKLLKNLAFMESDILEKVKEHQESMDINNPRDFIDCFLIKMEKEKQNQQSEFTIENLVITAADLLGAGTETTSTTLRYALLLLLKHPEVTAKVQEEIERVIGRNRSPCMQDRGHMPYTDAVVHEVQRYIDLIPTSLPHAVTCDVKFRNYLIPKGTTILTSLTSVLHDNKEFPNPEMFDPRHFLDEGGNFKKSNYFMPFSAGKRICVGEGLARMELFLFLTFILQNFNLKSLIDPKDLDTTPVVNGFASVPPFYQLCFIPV
A further data set deals with CYP3A4 (Homo sapiens (Human), UniProt P08684). Put plainly: Human liver microsomal CYP inhibition assay. In kind it is in vitro ADME. The following applies: human liver microsomes, 5-in-1 probe substrate. As for the experimental part: as §1, §2, §3
Sequence of CYP3A4 (P08684 whole entry): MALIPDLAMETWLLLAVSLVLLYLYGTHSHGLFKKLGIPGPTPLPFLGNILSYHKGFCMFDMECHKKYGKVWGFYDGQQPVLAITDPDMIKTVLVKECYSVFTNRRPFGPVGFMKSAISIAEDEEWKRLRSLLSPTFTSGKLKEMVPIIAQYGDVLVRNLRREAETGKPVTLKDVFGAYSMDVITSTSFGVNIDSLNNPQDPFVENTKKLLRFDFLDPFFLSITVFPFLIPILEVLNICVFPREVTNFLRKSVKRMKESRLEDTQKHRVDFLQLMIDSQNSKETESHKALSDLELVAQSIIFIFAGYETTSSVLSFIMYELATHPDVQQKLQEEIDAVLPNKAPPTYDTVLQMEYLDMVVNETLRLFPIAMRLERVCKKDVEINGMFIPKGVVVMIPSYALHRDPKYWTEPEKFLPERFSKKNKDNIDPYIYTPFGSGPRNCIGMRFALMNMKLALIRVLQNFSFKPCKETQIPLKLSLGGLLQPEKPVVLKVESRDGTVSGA
Data set [2] addresses T1, VAP-1/SSAO (Homo sapiens (Human), UniProt Q16853). Kind of data set: VAP-1 cell activity assay (HUVEC or CHO cells transfected with VAP-1/pCDNA (3.1) plasmid, Amplex Red). It counts as cell-based. The following applies: HUVEC or CHO cells transfected with VAP-1 plasmid; read-out: VAP-1/SSAO Cellular Inhibitory Activity IC50. The protocol: The inhibition of the sample on VAP-1 cell activity was measured by using an Amplex® Red Monoamine Oxidase kit (Invitrogen #A12214).
The cultured HUVEC or CHO cells were plated into a 6-well plate at a density of 0.8 M/well, placed in a 37° C., 5% CO2 incubator for incubation for 24 hours, and then the cells was transferred with a Lipo2000 reagent and a VAP-1/pCDNA (3.1) plasmid, and liquid was changed for the cells after 5 hours (Lipo2000 was toxic to the cells); after 24 hours, the cells were digested and plated into 384-well plates with a density of 25 μl, 10000 cells/well, and liquid was replaced with medium without FBS for the cells after 6-7 hours, and the cell plates were incubated overnight at 37° C. in a 5% CO2 incubator.
1) Dilution of the compound: serial dilution in 4× gradient was carried out with 100% DMSO, 10 points were diluted, the starting concentration of the to-be-tested compound was 0.5 mM (final concentration was 1 μM); 100 nl of compound solution was transferred to a 384-well cell assay plate with ECHO. Negative control wells: 100 nl of DMSO; background control wells: 100 nl DMSO+25 μL medium.
2) The reaction was carried out in the dark at room temperature for 30 min.
3) Preparation of Amplex Red reagent+HRP+benzylamine substrate working solution: Amplex Red reagent+HRP+benzylamine substrate working solution (200 μM Amplex Red reagent+1 U/mL HRP+1 mM benzylamine): 45 μl of 20 mM Amplex Red reagent mother solution, 22.5 μl of 200 U/ml horseradish peroxidase (HRP) mother solution and 45 ul of 100 mM benzylamine were tanken and added to 4.3875 ml of 1× reaction buffer.
4) After 30 min, 25 μl of the substrate working solution was added to a 384-well plate, and a final concentration was 100 μM Amplex Red reagent+0.5 U/mL HRP+0.5 mM benzylamine, respectively.
5) The reaction was carried out in the dark at room temperature for 60 minutes, and the fluorescence value was measured by Envision: the excitation wave was 535 nm, and the emission wave was 590 nm.
6) Inhibition rate calculation formula: % inhibition rate=(1−(test hole minus background−positive control well minus background)/(negative control well minus background-positive control well minus background))*100
7) The data were analyzed with Prism. The IC50 of the sample against VAP-1 cells was calculated.

Data set [3] addresses T1, VAP-1/SSAO. Put plainly: Human VAP-1 enzyme activity assay (Amplex Red Monoamine Oxidase kit). The following applies: 10 nM VAP-1 enzyme, 30 min preincubation, benzylamine substrate; read-out: Human Recombinant VAP-1/SSAO Enzyme Inhibitory Activity IC50. It counts as biochemical. The protocol: Human VAP-1 enzyme activity assay:
The inhibition of the sample on VAP-enzyme activity was measured by using an Amplex® Red Monoamine Oxidase kit (Invitrogen #A12214). 100 nL of the gradiently-diluted to-be-tested compound (solvent DMSO) was added to a 384-well plate. 25 μL of 10 nM VAP-1 enzyme solution was added and incubated for 30 minutes at room temperature. A substrate mixture of VAP-1 enzyme (200 μM Amplex Red, 1 U/mL HRP, 1 mM Benzylamine) was added and incubated for 60 minutes at room temperature. After the incubation, the fluorescent signal was read with a microplate reader Envision (excitation light wavelength 530-560 nm, emission light wavelength 590 nm). The fluorescence signal value after the background signal was removed was analyzed by Prism software, and the IC50 of the sample against the VAP-1 enzyme was calculated.

The target in another data set is hERG potassium channel (Homo sapiens (Human), UniProt Q12809). Put plainly: Inhibition test of hERG potassium ion channel (automatic patch clamp, CHO-hERG cells). It counts as cell-based. The protocol: The effect of the to-be-tested compound on the potassium ion channel of hERG was detected by a fully automatic patch clamp method.
Sequence of hERG potassium channel (Q12809 whole entry): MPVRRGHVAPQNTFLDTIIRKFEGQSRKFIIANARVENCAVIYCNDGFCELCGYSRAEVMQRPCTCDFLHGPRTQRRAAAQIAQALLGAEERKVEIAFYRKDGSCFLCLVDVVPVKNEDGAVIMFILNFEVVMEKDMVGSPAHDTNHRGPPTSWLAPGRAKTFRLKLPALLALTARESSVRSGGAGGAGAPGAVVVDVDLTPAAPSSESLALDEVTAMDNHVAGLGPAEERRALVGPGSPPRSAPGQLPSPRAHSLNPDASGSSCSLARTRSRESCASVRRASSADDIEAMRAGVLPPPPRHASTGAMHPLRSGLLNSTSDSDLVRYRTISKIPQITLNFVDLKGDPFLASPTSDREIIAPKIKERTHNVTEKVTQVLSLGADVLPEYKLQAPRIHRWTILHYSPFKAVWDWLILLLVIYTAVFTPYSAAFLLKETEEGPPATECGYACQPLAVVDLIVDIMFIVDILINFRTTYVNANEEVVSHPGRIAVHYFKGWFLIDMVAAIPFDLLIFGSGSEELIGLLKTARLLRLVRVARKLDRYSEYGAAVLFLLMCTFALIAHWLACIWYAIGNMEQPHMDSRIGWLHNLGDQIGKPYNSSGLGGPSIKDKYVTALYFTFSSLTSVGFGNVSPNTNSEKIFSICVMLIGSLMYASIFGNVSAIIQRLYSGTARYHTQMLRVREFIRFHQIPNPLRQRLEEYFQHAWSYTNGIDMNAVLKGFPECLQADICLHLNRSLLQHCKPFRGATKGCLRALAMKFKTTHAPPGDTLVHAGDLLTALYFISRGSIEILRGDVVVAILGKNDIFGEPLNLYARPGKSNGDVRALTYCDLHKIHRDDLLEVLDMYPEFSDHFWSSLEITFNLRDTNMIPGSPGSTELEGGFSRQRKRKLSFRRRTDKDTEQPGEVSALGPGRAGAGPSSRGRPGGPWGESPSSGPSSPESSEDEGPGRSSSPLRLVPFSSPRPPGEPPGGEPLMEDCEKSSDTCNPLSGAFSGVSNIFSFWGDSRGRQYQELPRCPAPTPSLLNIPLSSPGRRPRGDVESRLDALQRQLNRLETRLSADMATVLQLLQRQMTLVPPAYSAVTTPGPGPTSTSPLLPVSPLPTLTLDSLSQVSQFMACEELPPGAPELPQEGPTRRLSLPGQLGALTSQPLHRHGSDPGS
The cells stably expressing hERG potassium channel used in the experiment were obtained from CHO-hERE of Aviva Biosciences, and CHO-hERG was cultured in 5% CO2 at 37° C.
CHO-hERG cells prepared for the experiment were cultured for at least two days, and the cell density reached 75% or more. Prior to the start of the experiment, cells were digested with TrypLE and then resuspended in extracellular fluid to collect the cells.
The to-be-tested compound and the positive control Amitriptyline were dissolved in DMSO to a certain concentration of the stock solution, and then diluted according to different gradients, and finally added to the extracellular fluid in a certain ratio, and diluted to a concentration to be measured. Visual inspection was performed to see if there was any precipitation before the start of the experiment. Finally, the concentration of DMSO in the to-be-tested solution and the positive control Amitriptyline should not exceed 0.3%.
The clamping potential was kept at −80 mv, first a voltage stimulation of −50 mv was given for 80 ms to record the cell leakage current value, and then was depolarized to +20 mv to be maintained for 4800 ms, the channel of hERG was open, and then repolarized to −50 mv to be maintained 5000 ms, hERG tail current was led out and recorded, and finally, the voltage was returned to the clamping potential of −80 mv to be maintained for 3100 ms. The above voltage stimulation was repeated once every 15000 ms.
hERG QPatch^HTX experiment was performed at room temperature. A whole cell protocol, a voltage stimulation protocol and a compound detection protocol were established on the software of QPatch Assay Software 5.2 (Sophion Bioscience).
First, 30 repeated set voltage stimulations were performed, which was the baseline area for subsequent analysis, followed by the addition of 5 μl of extracellular fluid, repeated for three times. The concentration of each compound added in sequence was repeated three times in a volume of 5 μl. The cells were incubated for at least 5 min at each test concentration. During the entire recording process, the indicators needed to meet the data analysis acceptance criteria. If the standard was not met, the cells would not be included in the analysis scope, and the compounds would be retested. The above recording process was automatically operated by Qpatch analysis software. […]
In each complete current record, based on the percentage of peak current in the negative control, the percent inhibition of the concentration of each compound can be calculated. […]

T1 sequence (Q16853 whole entry): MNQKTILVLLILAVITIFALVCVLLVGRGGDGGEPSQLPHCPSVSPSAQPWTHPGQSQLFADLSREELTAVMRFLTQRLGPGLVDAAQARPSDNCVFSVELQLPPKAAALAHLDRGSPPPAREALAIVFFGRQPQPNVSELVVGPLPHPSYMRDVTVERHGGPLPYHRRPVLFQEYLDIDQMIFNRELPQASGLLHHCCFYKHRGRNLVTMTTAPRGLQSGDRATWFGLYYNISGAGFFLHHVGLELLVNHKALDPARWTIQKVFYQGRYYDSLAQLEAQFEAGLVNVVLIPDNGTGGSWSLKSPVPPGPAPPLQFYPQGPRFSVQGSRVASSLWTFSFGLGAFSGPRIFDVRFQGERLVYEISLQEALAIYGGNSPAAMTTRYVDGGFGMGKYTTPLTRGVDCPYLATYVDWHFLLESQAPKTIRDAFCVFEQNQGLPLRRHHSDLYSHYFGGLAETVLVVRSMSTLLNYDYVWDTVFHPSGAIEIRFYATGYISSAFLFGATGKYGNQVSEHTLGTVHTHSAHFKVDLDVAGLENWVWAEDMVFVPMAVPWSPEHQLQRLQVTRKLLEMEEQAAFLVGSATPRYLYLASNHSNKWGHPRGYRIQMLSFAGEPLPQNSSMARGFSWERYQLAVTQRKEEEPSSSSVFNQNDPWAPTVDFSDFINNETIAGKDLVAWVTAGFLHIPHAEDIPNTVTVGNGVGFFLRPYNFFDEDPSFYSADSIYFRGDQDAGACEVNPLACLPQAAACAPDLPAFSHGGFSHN
Sequence of CYP2D6 (P10635 whole entry): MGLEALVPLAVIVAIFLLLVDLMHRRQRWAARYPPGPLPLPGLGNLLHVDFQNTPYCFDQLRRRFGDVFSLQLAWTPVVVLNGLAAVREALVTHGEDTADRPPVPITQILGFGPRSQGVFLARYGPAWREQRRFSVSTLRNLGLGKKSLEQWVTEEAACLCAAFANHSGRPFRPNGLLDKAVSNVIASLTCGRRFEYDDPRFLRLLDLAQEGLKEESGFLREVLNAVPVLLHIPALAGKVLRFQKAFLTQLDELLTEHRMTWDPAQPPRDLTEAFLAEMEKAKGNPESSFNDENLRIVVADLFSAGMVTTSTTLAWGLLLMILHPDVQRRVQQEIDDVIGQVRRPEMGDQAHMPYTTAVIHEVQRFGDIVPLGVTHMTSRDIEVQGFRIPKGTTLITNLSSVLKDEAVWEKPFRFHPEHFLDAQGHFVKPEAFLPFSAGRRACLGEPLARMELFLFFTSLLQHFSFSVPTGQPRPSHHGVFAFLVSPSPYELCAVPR
Sequence of CYP1A2 (P05177 whole entry): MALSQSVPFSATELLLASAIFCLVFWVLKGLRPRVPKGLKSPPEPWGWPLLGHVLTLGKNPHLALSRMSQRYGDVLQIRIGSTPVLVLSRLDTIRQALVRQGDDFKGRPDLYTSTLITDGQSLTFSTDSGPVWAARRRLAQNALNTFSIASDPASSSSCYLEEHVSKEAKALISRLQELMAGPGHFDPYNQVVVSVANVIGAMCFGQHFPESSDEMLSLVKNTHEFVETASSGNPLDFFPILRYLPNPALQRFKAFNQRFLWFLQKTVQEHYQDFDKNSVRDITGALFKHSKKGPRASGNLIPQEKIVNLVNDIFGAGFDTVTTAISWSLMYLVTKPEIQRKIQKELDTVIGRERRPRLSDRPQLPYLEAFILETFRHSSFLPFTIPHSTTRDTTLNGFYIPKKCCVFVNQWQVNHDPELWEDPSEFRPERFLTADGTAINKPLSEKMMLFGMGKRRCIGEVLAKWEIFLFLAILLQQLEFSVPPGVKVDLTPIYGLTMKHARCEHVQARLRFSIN

Take `CC(C)(C)NC(=O)c1ccc(OC/C(=C/F)CN)cc1.Cl` [PXS-4728A, reference compound]: the “Liver Concentration” value in [1] (@1.0 hour) amounted to 13140; in data set [1] (@4.0 hour), 2120. In addition, the “Liver Concentration/Plasma Concentration ratio” value came out at 10 in [1] (@1.0 hour) and 14 in data set [1] (@4.0 hour). Moreover, the results for the “Plasma Concentration” value in data set [1] (@1.0 hour) and in data set [1] (@4.0 hour) were 1470 and 154, respectively. For the same compound, the IC50 was 32000 nM on CYP2C9; 38000 nM on CYP2D6; 9000 nM on CYP1A2; 76000 nM on CYP2C19; more than 50000 nM against CYP3A4.
On to `Cc1noc(-c2ccc(OC/C(=C/F)CN)cc2)n1.Cl` [WX008], for which the IC50 at VAP-1/SSAO [2] is 0.3 nM; at VAP-1/SSAO [3] it was 0.4 nM; on hERG potassium channel (QPatch whole cell patch clamp, CHO-hERG, 0.24-30.00 μM) it was more than 30000 nM. Also, the “Inhibition of hERG potassium current (in words)” value on hERG potassium channel (conclusion statement) is given as “weak inhibition”.
Regarding `CCCc1n[nH]c(-c2ccc(OC/C(=C/F)CN)cc2)n1` [WX097], the IC50 came to 0.3 nM at VAP-1/SSAO [2] and 0.5 nM at VAP-1/SSAO [3].
For `NC/C(=C\F)COc1ccc(-c2nc(CC(F)(F)F)n[nH]2)cc1` [WX101], the IC50 on VAP-1/SSAO [2] and at VAP-1/SSAO [3] was 0.4 nM in each case.
Regarding `Cn1nc(CC(F)(F)F)nc1-c1ccc(OC/C(=C/F)CN)cc1` [WX104], the IC50 at VAP-1/SSAO [2] was found to be 0.7 nM; at VAP-1/SSAO [3], 0.3 nM.
On to `Cn1nc(-c2ccc(OC/C(=C/F)CN)cc2Cl)nc1N1CCOCC1` [WX107], for which the IC50 at VAP-1/SSAO [2] worked out at 1.5 nM; at VAP-1/SSAO [3], 0.9 nM.
On the same counts, the results for `CC(C)n1nc(C(F)F)nc1-c1ccc(OC/C(=C/F)CN)cc1` [WX109] are 0.7 nM and 2.8 nM.
On to `NC/C(=C\F)COc1ccc(-c2nc(C3CC3)n(CCO)n2)cc1` [WX112], for which the IC50 at VAP-1/SSAO [2] was 0.9 nM; at VAP-1/SSAO [3], 1.7 nM.
The corresponding values for `NC/C(=C\F)COc1ccc(-c2nc(C3CC3)n(CC(F)(F)F)n2)cc1` [WX113] are 0.9 nM and 1.1 nM.
For the compound `Cn1nc(C2(F)CC2)nc1-c1ccc(OC/C(=C/F)CN)cc1` [WX117], the IC50 at VAP-1/SSAO [2] was 0.9 nM; on VAP-1/SSAO [3], 0.7 nM.
For `CCn1nc(C2(F)CC2)nc1-c1ccc(OC/C(=C/F)CN)cc1` [WX118], the IC50 on VAP-1/SSAO [2] and at VAP-1/SSAO [3] was 0.7 nM each time.
